Measured values as given in patent US20200147149A1, “COMPOSITIONS AND METHODS FOR THE MODULATION OF GUT SENSORY CELLS” (Duke University, priority 2017, published 2020).
“Also recorded” adds a separate entry of the source.

Experiments:
iGluSnFR-HEK cells = iGluSnFR-HEK cells cultured alone, multiphoton imaging; type: cell-based; details: glutamate 100 μM
Protocol: HEK 293/17 cells (ATCC CRL-11268) were maintained in DMEM (Gibco 11965) supplemented with 10% FBS (Corning 35-010-CV), Glutamax, and non-essential amino acids (both Gibco). Cells were transfected with 1 ug plasmid pCMV(MinDis) iGluSnFR (Addgene 41732) using 1 ul Lipofectamine 2000 in Optimem (Gibco) in 24-well plates.
The 5.2 Kb iGluSnFR (pCMV(MinDis).iGluSnFR was a gift from Loren Looger; Addgene plasmid #41732) was moved to the zeocin resistant backbone of Addgene #51694 (DRH296: FCK-Optopatch2 was a gift from Adam Cohen) as a NdeI+XhoI fragment. The resulting plasmid (pMEK8) was transfected into HEK 293/17 cells (ATCC CRL-11268) using 1 μl Lipofectamine 2000/ug DNA. Cells were maintained in DMEM (Gibco 11965) supplemented with 10% FBS (Corning 35-010-CV), Glutamax, non-essential amino acids (both Gibco) and 3 μl/ml zeocin ([…], Invitrogen).
CckCRE_tdTomato enteroendocrine cells were isolated as described above. Isolated cells were mixed with iGluSnFR-HEK cells at a ratio of 10:1, then plated on 1% Matrigel coated coverslips. Control iGluSnFR-HEK cells were plated alone. Cells were incubated for 12-18 hours before imaging. Coverslips were imaged using a multiphoton microscopy system (Bruker Ultima IV with a Chameleon Vision II tunable laser). Imaging frames were captured at 1.876 fps, using 920 nm light. Imaging series were analyzed using Fiji (ImageJ), and cell traces were plotted with Excel.

glutamate receptor = test: Antagonist studies: glutamate receptor antagonists on vagal nerve firing rate response to sucrose or 473 nm laser; type: in vivo, mouse; details: sucrose-300 mM; for time to peak (speed) of vagal response to sucrose: after KA/AP3 (150 μg/kg kynurenic acid + 1 mg/kg AP-3) or KA 150 μg/kg alone, sucrose alone 92.8 seconds, 1 mg/kg
Protocol: Wild-type control (n=5-9), CckCRE_ChR2-tdTomato (n=6), CckCRE_Halorhodopsin-YFP (n=5), and Vglut1CRE_ChR2-YFP (n=6) mice were used for vagal recordings. Mice were anesthetized with 3 mg/g-mouse urethane 1 hour before surgery then with 0.5-1% isoflurane. A section of neck skin was removed between the jaw and clavicle. The thyroid was reflected bilaterally, and the carotid bundle was exposed using coarse dissection. The carotid nerve was separated from the vagus nerve using a curved blunt probe. Two platinum iridium wires (0.001″ diameter, PTFE coated, 10% Ir 90% Pt; Medwire by Sigmund Cohn Corp) were looped around the vagus nerve for recording. Mineral oil was used to insulate the vagus nerve from surrounding tissue. The small intestine was exposed by removing a section of skin and peritoneum. A 20 gauge gavage needle was surgically inserted through the stomach wall and into the duodenum. The gavage needle was sutured in place beyond the pyloric sphincter. Saline and stimulant tubes were connected to the gavage needle. For optogenetic experiments, a fiber optic cable (FT020, ThorLabs) was threaded through the gavage needle into the lumen of the duodenum. A perfusion exit incision was made 10 cm distal to the pyloric sphincter. During each recording, PBS was constantly perfused through the duodenum using a peristaltic pump (Cole-Parmer) at the lowest setting for a flow rate of ˜400 uL PBS per minute. Stimulation conditions were applied after recording 2 minutes of baseline activity. During whole nutrient stimulation conditions, PBS perfusion was continuous and 200 μL of ENSURE® was perfused through the second tube for 1 minute using a syringe pump. […] During CCK stimulation conditions, PBS perfusion was continuous, and 200 μL of 2.9 μM CCK octapeptide-sulfated (BaChem) was perfused through the second tube for 1 minute using a syringe pump (Fusion 200, Chemyx) for a final concentration of ˜870 nM CCK in PBS (10 μg/kg dose). […] Final stimulant concentrations were determined using the ratio of dilution and confirmed by osmolarity testing (Model 3320 Osmometer, Advanced Instruments Inc.). […]
Extracellular voltage was recorded from a pair of platinum iridium wires as described above. […] The raw data was analyzed using a spike sorting algorithm (MATLAB by MathWorks). Spikes were detected using simple threshold detection based on RMS noise. The firing rate was calculated using a Gaussian kernel smoothing algorithm (200-ms time scale).
Stimulation response was quantified as the maximum firing rate after stimulation (stimulant conditions) or during recording (baseline). […] Maximum firing rate was analyzed across genotype, stimulation condition, and their interaction term by ANOVA, followed by HSD post hoc testing (iMP by SAS Institute).

[1] = tested on: ionotropic glutamate receptor; test: Patch-clamp of nodose neurons co-cultured with CckCRE_ChR2 cells, photo-stimulation and microperfusion of glutamate blocker; type: cell-based, mouse; details: kynurenic acid 3 mM, n=4 pairs
Protocol: The small intestines of CckGFP and CckCRE_ChR2-tdTomato mice were dissected and flushed twice with cold PBS. The intestine was cut open lengthwise and cut again into ˜1 cm pieces. Tissue pieces were incubated with 3 mM EDTA at 4° C. for 15 minutes then at 37° C. for 15 minutes. New cold PBS was added and villi and crypts were mechanically detached. Villi and crypts were spun down and further digested in Collagenase and Dispase. Cells were spun down and re-suspended in L-15 media with 5% FBS and DNase to prevent cell clumping. Cells were passed through a 70 μm then 40 μm cell strainer to isolate single cells. Then cells were sorted using Fluorescence Activated Cell sorting (BD FACSAria) selecting for GFP fluorescence cells. […]
Enteroendocrine cells and nodose neurons were co-cultured as described above. […] CCK-producing enteroendocrine cells were identified by GFP expression and neurons by their morphology and lack of fluorescence. […] At the resting membrane potential, cell properties such as input resistance, and spike threshold were determined using 200 ms steps from −40 pA to 100 pA in 20 pA increment. After that, baseline neuron activity was recorded in current-clamp or voltage-clamp for 5 min before exposure to glucose (20 mM) for 30-60 sec, followed by a wash with no glucose-containing extracellular solution. […] EPSC responses were recorded for 1 second after light stimulation. […]

vagus nerve [2] = test: Vagus nerve recording during intraluminal (duodenal) nutrient or CCK perfusion; type: in vivo, mouse; details: for time to maximum peak firing rate after the onset of the stimulus: CCK 870 nM or sucrose 300 mM intraluminal, FIG. 30C
Protocol: Wild-type control (n=5-9), CckCRE_ChR2-tdTomato (n=6), CckCRE_Halorhodopsin-YFP (n=5), and Vglut1CRE_ChR2-YFP (n=6) mice were used for vagal recordings. Mice were anesthetized with 3 mg/g-mouse urethane 1 hour before surgery then with 0.5-1% isoflurane. A section of neck skin was removed between the jaw and clavicle. The thyroid was reflected bilaterally, and the carotid bundle was exposed using coarse dissection. The carotid nerve was separated from the vagus nerve using a curved blunt probe. Two platinum iridium wires (0.001″ diameter, PTFE coated, 10% Ir 90% Pt; Medwire by Sigmund Cohn Corp) were looped around the vagus nerve for recording. Mineral oil was used to insulate the vagus nerve from surrounding tissue. The small intestine was exposed by removing a section of skin and peritoneum. A 20 gauge gavage needle was surgically inserted through the stomach wall and into the duodenum. The gavage needle was sutured in place beyond the pyloric sphincter. Saline and stimulant tubes were connected to the gavage needle. For optogenetic experiments, a fiber optic cable (FT020, ThorLabs) was threaded through the gavage needle into the lumen of the duodenum. A perfusion exit incision was made 10 cm distal to the pyloric sphincter. During each recording, PBS was constantly perfused through the duodenum using a peristaltic pump (Cole-Parmer) at the lowest setting for a flow rate of ˜400 uL PBS per minute. Stimulation conditions were applied after recording 2 minutes of baseline activity. During whole nutrient stimulation conditions, PBS perfusion was continuous and 200 μL of ENSURE® was perfused through the second tube for 1 minute using a syringe pump. […] During CCK stimulation conditions, PBS perfusion was continuous, and 200 μL of 2.9 μM CCK octapeptide-sulfated (BaChem) was perfused through the second tube for 1 minute using a syringe pump (Fusion 200, Chemyx) for a final concentration of ˜870 nM CCK in PBS (10 μg/kg dose). […] Final stimulant concentrations were determined using the ratio of dilution and confirmed by osmolarity testing (Model 3320 Osmometer, Advanced Instruments Inc.). During 473 nm laser stimulation conditions, PBS perfusion was continuous, and the laser was pulsed for 1 minute at 40 Hz, 4 volts peak voltage, 20% duty cycle (473 nm, 80 mW laser, RGBlase).
Extracellular voltage was recorded from a pair of platinum iridium wires as described above. A differential amplifier and bandpass filter (1000× gain, 300 Hz-5 kHz bandpass filter; A-M Systems LLC) was used and the signal was processed using a data acquisition board and software (20 kHz sampling rate; Signal Express, National Instruments Corp). The raw data was analyzed using a spike sorting algorithm (MATLAB by MathWorks). Spikes were detected using simple threshold detection based on RMS noise. The firing rate was calculated using a Gaussian kernel smoothing algorithm (200-ms time scale).
Stimulation response was quantified as the maximum firing rate after stimulation (stimulant conditions) or during recording (baseline). Each trial serves as its own control by normalizing the maximum firing rate to the average baseline firing rate (defined as the first two minutes of recording, prior to stimulation onset). Mice were excluded from analysis if no sucrose response was present throughout recording. Maximum firing rate was analyzed across genotype, stimulation condition, and their interaction term by ANOVA, followed by HSD post hoc testing (iMP by SAS Institute).

[3] = tested on: intestinal CCK enteroendocrine cells; test: Calcium imaging (GCaMP6s) of enteroendocrine cells in CckCRE_tdTomato intestinal organoids; type: cell-based, mouse; details: 10 mM sucrose; 40 mM KCl control; n=5
Protocol: For neurons, Phox2bCRE_GCaMP6s (n=3) nodose neurons were dissociated and plated. Nodose ganglia were dissected and digested in Liberase (Roche, 5401054001). Neurons were washed and filtered through a 70 μm cell strainer, then plated on 12 mm coverslips and placed in an incubator overnight. Cells were imaged 1-2 days later. Coverslips were placed in the recording chamber of a Zeiss Examiner Z1 and imaged with a Hamamatsu camera (Orca-flash4.0; C11440) using the Zeiss ZEN software package. For enteroendocrine cells, CckCRE_tdTomato organoids with transduced with ΔG-rabies-GCaMP6s. Organoids were imaged using multi photon microscopy 3-4 days after transduction. Imaging buffer (in mM: 140 NaCl, 5 KCl, 2 CaCl2, 2 MgCl2, 10 HEPES) was continuously perfused over the coverslips. […] Images were analyzed with Fiji ([…]), and cell traces were plotted with Matlab.

vagus nerve [4] = test: Vagus nerve recording during intraluminal (duodenal) nutrient or CCK perfusion; type: in vivo, mouse; details: sucrose 300 mM delivered intraperitoneally, wild-type mice

With `N[C@@H](CCC(=O)O)C(=O)O` [glutamate, reference compound] the “fluorescence response of iGluSnFR-HEK cells cultured alone” value (iGluSnFR-HEK cells) was “did respond; also recorded: causes an increase in fluorescence”.
For `O=C(O)c1cc(=O)c2ccccc2[nH]1` [kynurenic acid], the “effect on maximum (peak) normalized vagal firing rate in response to sucrose” value (glutamate receptor; KA/AP3 = 150 μg/kg kynurenic acid + 1 mg/kg AP-3, or KA 150 μg/kg alone, wild-type mice) was “do not”, the “time to peak (speed) of vagal response to sucrose” value (glutamate receptor) was “about 180 seconds” and the “time to peak (speed) of vagal response to sucrose” value (glutamate receptor; listed as KA) was 198 s. For the same molecule, the “effect on rapid (first 60 seconds) vagal response to sucrose” value (glutamate receptor; kynurenic acid alone (150 μg/kg; dose range 1.5 μg/kg-1.5 mg/kg in FIG. 32), 1.5 mg/kg) was “suppressed; also recorded: attenuates rapid vagal response but not prolonged vagal response”, the “effect on light (470/473 nm) evoked EPSCs in connected nodose neurons” value [1] was “abolished” and the “light evoked response after the blocker is washed away” value ([1]; wash) was “recovered”.
In the case of `OC[C@H]1O[C@@](CO)(O[C@H]2O[C@H](CO)[C@@H](O)[C@H](O)[C@H]2O)[C@@H](O)[C@@H]1O` [sucrose], the “time to maximum peak firing rate after the onset of the stimulus” value (vagus nerve [2]; wild-type mice) is reported as “about 60 s”, the vagal response (vagus nerve [2]; luminal sucrose 300 mM, CckCRE_Halo-YFP mice, no laser) is reported as “elicited a vagal response” and the vagal firing rate (vagus nerve [2]; sucrose 100 mM-300 mM (300 mM in figures) perfused intraluminally, wild-type mice, vs baseline) is reported as “significantly increased; also recorded: stimulate”. The “time to peak of vagal response” value (vagus nerve [2]; sucrose-300 mM without antagonist, wild-type mice, average, FIG. 25D) was 92.8 s, the vagal activity (vagus nerve [2]; sucrose-300 mM, Vglut1CRE_ChR2 mice) was “stimulate vagal activity” and the “magnitude of the sugar response as percent fluorescence of the KCl response” value [3] was 72.4±10.6%. For the same molecule, the vagal firing rate (vagus nerve [4]) was “not observed; also recorded: did not increase vagal firing rate”.
With “CCK8: CCK octapeptide-sulfated (BaChem) [reference compound]” the “time to maximum peak firing rate after the onset of the stimulus” value (vagus nerve [2]; wild-type mice) was “about 180 s” and the “vagal firing rate (maximum)” value (vagus nerve [2]; CCK8 870 nM (10 μg/kg) infused into the intestinal lumen, wild-type mice) was “increased the vagal firing rate to a similar maximum reached by sucrose”.
